According to US11142548B2, “Agents that activate CD47 and their use in the treatment of inflammation” (SORBONNE UNIVERSITE, priority 2016, dated 2021):
Non-standard residues stand in square brackets, D forms with d. Residues, ends and D or L forms follow the SMILES beside them. NMeR = CN[C@@H](CCCNC(=N)N)C(=O)O; Nle = CCCC[C@H](N)C(=O)O

Columns and labels:
[1] = system: human monocytes; assay: Monocyte/RPE co-culture, monocyte number; assay type: cell-based; conditions: for number of PU1+ Mos, dose response: HTRA1-activated co-cultures, dose dependently
From the text: In accordance with the Declaration of Helsinki, volunteers provided written and informed consent for the human monocyte expression studies, which were approved by the Centre national d'ophthalmologic des Quinze-Vinet hospital (Paris, France) ethics committees (no. 913572). PBMCs were isolated from heparinized venous blood from healthy volunteer individuals by 1-step centrifugation on a Ficoll Paque layer (GE Healthcare) and sorted with EasySep Human Monocyte Enrichment Cocktail without CD16 Depletion Kit (StemCells Technology). Mouse peritoneal macrophages, bone marrow-derived monocytes and photoreceptor outer segment (POS) isolation (all in serum-free X-Vivo 15 medium) were performed as previously described (Sennlaub et al, EMBO Mol Med. 2013, 5:1775-1793). For co-culture experiments the mononuclear monocytes were either stained using CellTrace™ CFSE (Life Technologies®) and then washed three times or they were identified by PU1 immunohistochemistry, a MP-specific transcription factor not expressed in RPE.
(§1) Fresh pig eyes were obtained from the slaughter house 2-3 hours after enucleation. They were cleaned of surrounding tissue and immersed briefly in antiseptic solution (Pursept®). The anterior part of the eye was removed, as the lens, vitreous and vitreous. The posterior segments were washed 2 times with PBS (Phosphate Buffered Saline) and then incubated at 37° C. in the presence of 0.25% trypsin, to detach the RPE cells. After 1 h incubation, the trypsin solution was removed and the cells recovered in Dulbecco's Modified Eagle's Medium (DMEM) supplemented with 20% fetal calf serum (FCS) decomplemented and in the presence of antibiotics (1% penicillin/Streptomycin). The cells were washed several times and then incubated at 37° C. in culture dishes. Three days after the culturing, these cells were again incubated with by 0.25% trypsin, washed, and seeded into 48 wells culture plates (Grenier®) at a density of 150,000 cells/culture well (300,000 cells/[…] or 500 μL/well). Cell confluence was obtained after 4 days of incubation at 37° C. with optimum cell characteristics (squamous cells, well pigmented). To avoid the aging of these primary cell cultures, all the experiments were conducted between the 5th and 7th day after seeding the culture plates.
The culture medium of RPE cells was changed the day before the co-culture with DMEM without FCS (DMEM+1% Penicillin/Streptomycin only). Monocytes were plated onto the wells in the presence or absence of RPE cells at a concentration of 200,000 cells/culture well in a 48-well plate.
Part of co-culture well was brought into contact with 1 ng/ml of Lipopolysaccharide (LPS) from E. coli or recombinant HTRA1 (R & D, 5 μg/ml), to simulate a systemic inflammatory activation (LPS) or microenvironment similar to AMD (increase HTRA1) (see above). […]
RPE cells were permeabilized, after washing PAF 4%, with a solution of PBS-0.1% Triton-Citrate 0.1%. Nonspecific immunogenic sites were blocked with PBS-0.1% Triton-5% horse serum. After 1 hour, the blocking solution was removed and the cells were placed in presence of the with the primary antibodies (polyclonal rabbit anti-human PU.1, 1/200, LifeTechnologies; polyclonal goat anti-human OTX2, 1/500, R&D) diluted in PBS triton 0.1% and 1% horse serum and incubated at 4° C. for 12 h. After three washes with PBS, the secondary antibody coupled to a fluorochrome and diluted in PBS-0.1% Triton-1% horse serum was added along with DAPI (nuclear staining) and left for 1 hour at temperature ambient and then washed several times with PBS.
25 fields per well were analyzed Arrayscan® then the number of cells for each culture condition was counted directly by a computer protocol. All nuclei were labeled with DAPI, monocytes were marked in green 488 nm (CellTrace™ CFSE) or and RPE cells in far red 647 nm (recognition of anti-OTX2 primary antibody). […]

[2] = system: subretinal IBA-1+ mononuclear monocytes; assay: Laser-induced subretinal inflammation in wildtype- and Tsp1-/- mice; assay type: in vivo, mouse; conditions: wildtype mice, intravitreal injection at d3, quantification at d7
Protocol: (§2) Laser-coagulations were performed with a 532 nm ophtalmological laser mounted on an operating microscope (Vitra Laser, 532 nm, 450 mW, 50 ms, and 250 μm): Intravitreal injections of 2 μl of HTRA1 and/or TSP1 were performed using glass capillaries (Eppendorf) and a micro injector. The 2 μl injection solution contained 50 μg/ml TSP1 and HTRA1, corresponding to an intraocular concentration of 5 μg/ml of each protein assuming their dilution by approximately 1/10th in the intra-ocular volume. […] A volume of 2 μl of a 100 μM solution of either PBS, recombinant TSP1 (10 μg/ml), the 4NGG control peptide or the CD47-activating peptide PKT16 (200 μM) was injected at day 4 (when MP infiltration is maximal) and day 7 after the injury and evaluated subretinal inflammation on flatmounted RPE/choroidal flatmounts at day 10.
(§3) Eyes were enucleated, fixed in 4% PFA 30 minutes and sectioned at the limbus; the cornea and lens were discarded. […] Choroids and retinas were flatmounted and viewed with a fluorescence microscope DM5500B (Leica). IBA-1+ cells were counted on whole RPE/choroidal flatmounts and on the outer segment side of the retina. […]

[3] = system: porcine RPE; assay: Monocyte/RPE co-culture, RPE cell number (OTX2+ nuclei); assay type: cell-based; conditions: for number/survival of RPE cells in co-culture: HTRA1 5 μg/mL, OTX2 nuclear marker
Protocol: as §1
The culture medium of RPE cells was changed the day before the co-culture with DMEM without FCS (DMEM+1% Penicillin/Streptomycin only). Monocytes were plated onto the wells in the presence or absence of RPE cells at a concentration of 200,000 cells/culture well in a 48-well plate. […]
25 fields per well were analyzed Arrayscan® then the number of cells for each culture condition was counted directly by a computer protocol. […] For graphs where quantifications from several plates were pooled (FIGS. 4D and E) results were expressed as the percentage of the number of PU.1 or OTX2 positive cells normalized with the HTRA1 treated condition. […]

[4] = system: subretinal IBA-1+ MPs; assay: Laser-injury model in Cx3cr1GFP/GFP mice; assay type: in vivo, mouse; conditions: 2 μl intravitreal at day 4 and day 7, day 10, vs PBS or 4NGG
Protocol: as §2, §3

[5] = molecular target: T1, HTRA1 (Homo sapiens, UniProt Q92743); assay: Co-incubation of recombinant TSP1 or TSP2 with recombinant HTRA1 (Coomassie staining, Western blot); assay type: biochemical; conditions: co-incubation at 37° C. for 24 h, Coomassie gel
T1 construct: purchased R & D
T1 sequence (Q92743 23-480): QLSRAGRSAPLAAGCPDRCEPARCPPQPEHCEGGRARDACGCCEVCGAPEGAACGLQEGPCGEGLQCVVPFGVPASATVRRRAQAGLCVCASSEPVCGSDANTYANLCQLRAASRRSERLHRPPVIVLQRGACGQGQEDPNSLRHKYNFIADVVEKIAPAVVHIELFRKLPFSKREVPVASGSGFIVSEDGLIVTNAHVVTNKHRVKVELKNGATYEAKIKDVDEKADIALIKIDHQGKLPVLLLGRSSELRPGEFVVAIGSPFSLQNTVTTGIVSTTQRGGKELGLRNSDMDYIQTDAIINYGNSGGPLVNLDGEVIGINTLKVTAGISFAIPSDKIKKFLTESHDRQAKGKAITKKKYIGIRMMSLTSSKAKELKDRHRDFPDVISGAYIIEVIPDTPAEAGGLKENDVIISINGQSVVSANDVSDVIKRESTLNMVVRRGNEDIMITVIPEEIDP
Protocol: WB analysis was performed using a monoclonal anti-TSP1 antibody (Abeam), as previously described (Houssier et al., PLoS Med. 2008, 5:e39). RT-PCRs primers were ordered from Taqman, reference: Hs01016151_m1.
Western blot analysis of the proteins confirmed the disappearance of the whole sized TSP1 and the appearance of several smaller bands in the co-incubated condition (FIG. 3A). […] Next the functionality of rTSP1 and HTRA1-digested TSP1 was analyzed in laser-induced subretinal inflammation in vivo. […] Accordingly, associated choroidal neovascularization, measured as the surface covered by CD102^−CNV on choroidal flatmounts at d7, underwent the same differences (FIG. 3D).

[6] = system: recruited monocyte-derived inflammatory macrophages (recMφ); assay: Thioglycollate-induced peritonitis; assay type: in vivo, mouse; conditions: single intra-peritoneal injection at day 1, observed at day 2
Protocol: Mouse peritoneal exudate cells (PECs) were elicited by i.p. injection of 0,5 ml 3% thioglycollate (T9032, Sigma) into 10 weeks old male C57BL/6J and Cd47^−/− mice. After 1 day, PECs were isolated by flushing of the peritoneum with ice-cold PBS, Mφs were negatively selected by magnetic sorting following the manufacturers protocol (EasySep Mouse Monocyte Enrichment Kit, Stemcell Technologies), resuspended in X-VIVO 15 medium (Lonza), and plated in Lab-Tek® Chamber Slide™ (Nunc®).
To test whether CD47 influences inflammation resolution in other pathological contexts, a model of acute thioglycollate-induced peritonitis was used, characterized by an early accumulation of neutrophils, followed by recruited monocyte-derived inflammatory macrophages (recMφ), both experiencing an apoptosis-driven elimination at different kinetics (Gautier et al., Blood. 2013, 122:2714-2722).

Molecule: 4N1K-GGGGGGGG-4N1K (KRFYVVMWKKGGGGGGGGKRFYVVMWKK) [d4N1K]
- Mo elimination compared with 4N1K ([1]; HTRA1-activated co-cultures, 0, 4, 20 and 50 μM, 48 h): significantly more effective

Molecule: rHTRA1: recombinant HTRA1 (R & D), high-temperature requirement A serine peptidase 1
- laser-induced subretinal inflammation in wildtype mice [2]: aggravates
- number/survival of RPE cells in co-culture ([3]; listed as HTRA1): did not influence survival
- number/survival of RPE cells in co-culture ([3]; listed as Recombinant HTRA1): did not diminish significantly
- monocytes survival in co-culture ([1]; HTRA1 5 μg/mL): significantly increased
- hMos number relative to control conditions ([1]; HTRA1 5 μg/mL added to co-culture, 24 h): 3 to 4 times
- effect of HTRA1 on Mo number after heat-inactivation ([1]; heat-inactivated HTRA1 (not shown)): abolished its effect

Molecule: KRFYVVMWKK (4N1K peptide) [reference compound]
- number of PU1+ Mos, dose response ([1]; 48 h): diminished the number of Mos

Molecule: CCCC[C@H](NC(=O)[C@@H](NC(=O)[C@@H](NC(=O)[C@H](Cc1ccc(O)cc1)NC(=O)[C@H](Cc1ccccc1)NC(=O)[C@H](CCCNC(=N)N)N(C)C(=O)[C@H](N)CCCCN)C(C)C)C(C)C)C(=O)N[C@@H](Cc1c[nH]c2ccccc12)C(=O)N[C@@H](CCCCN)C(=O)N[C@H](CCCCN)C(=O)O [PKT16, (D)K-(NMeR)-F-Y-V-V-Nle-W-K-(D)K] (H-[dK][NMeR]FYVV[Nle]WK[dK]-OH)
- elimination of subretinal IBA-1+ MPs adjacent to the laser impact [4]: eliminated significantly more efficiently
- toxicity to RPE cells (number of OTX2+ nuclei) ([3]; HTRA1 treated co-culture with peptide): No toxicity
- number of PU1+ Mos, dose response ([1]; 48 h): diminished the number of Mos
- CFSE+ monocytes number in HTRA1 treated co-culture ([1]; peptide 100 μM added directly, HTRA1 5 μg/mL, 24 h): completely reversed

Molecule: recombinant TSP2: recombinant TSP2, contains one VVM site, resistant to HTRA1
- degradation by recombinant HTRA1 [5]: no such degradation

Molecule: CSCC[C@H](NC(=O)[C@@H](NC(=O)[C@@H](NC(=O)[C@H](Cc1ccc(O)cc1)NC(=O)[C@H](Cc1ccccc1)NC(=O)[C@H](CCCNC(=N)N)NC(=O)[C@H](N)CCCCN)C(C)C)C(C)C)C(=O)N[C@@H](Cc1c[nH]c2ccccc12)C(=O)N[C@@H](CCCCN)C(=O)N[C@H](CCCCN)C(=O)O [PKHB1, (D)K-R-F-Y-V-V-M-W-K-(D)K]
- elimination of recMφs [6]: significantly accelerated the elimination
